Results on four compounds are retold here after patent US8084625B2, “Crosslinking agent, crosslinking method, method of controlling gene expression, and method of examining gene function” (Wako Pure Chemical Industries, Ltd., priority 2005, dated 2011).

“Also recorded” adds a separate entry of the source.

The subject of experiment [1] is EGFP. Description: Effectiveness versus bis-Bhc-CH3 and Bhc-diazo, EGFP/DsRed cotransfection in Hela cells (Example 7). Type of experiment: cell-based. Here is the method: As shown in the following Table 5, 0.2 μl of the crosslinking agent solution and 0.20 μl of the siRNA solution were mixed together, and the mixture thus obtained was still held for 8 hours under light shielding conditions. Subsequently, Nos. 2, 4, and 6 were irradiated with UV (350 nm) for 3 minutes using Rayonet Photochemical Reactor manufactured by Southern N. E. Ultraviolet Co.

In experiment [2] the test system is EGFP. Description: RNAi-effect inhibitory ability, EGFP/DsRed cotransfection in Hela cells (Example 5). Conditions: crosslinking agent solution 4 μM reacted with siRNA 8 hours, no UV irradiation, 48 hours culture. The class given is cell-based. The procedure:
(1) Reagents • Hela cells (American Type Culture Collection (ATCC, Rockville, Md.)) • DMEM culture medium (Dullbecco's modified Eagle culture medium, Nissui 2, manufactured by Nissui Pharmaceutical Co., Ltd.) • Opti-MEM culture medium (manufactured by GIBCO) • Trypsin solution (0.38 mg/ml EDTA aqueous solution containing 2.5 mg of trypsin, manufactured by GIBCO) • LipofectAMINE 2000 (manufactured by Invitrogen) • pEGFP-N1 vector solution
Hela cells (500 μl of the DMEM culture medium containing Hela cells and 10% of FBS) were spread on a 24-hole plate so as to obtain 3×10^4 cells/well. After 24 hours passed, the old culture medium was removed, and Hela cells were then washed with a PBS(−) solution. Subsequently, the PBS(−) solution was removed, and 500 μl of the DMEM culture medium containing 10% of FBS was added per one well. This was used as a transfection Hela cell plate.
As shown in the following Table 2, 0.2 μl of the crosslinking agent solution and 0.20 μl of the siRNA solution were mixed together, and the mixture thus obtained was still held for 8 hours under light shielding conditions. Subsequently, Nos. 2, 4, and 6 were irradiated with UV (350 nm) for 3 minutes using Rayonet Photochemical Reactor manufactured by Southern N. E. Ultraviolet Co. […]

The test system of experiment [3] is EGFP. Description: Study in cell: local UV irradiation of transfected Hela cells, EGFP/DsRed (Example 8). The class given is cell-based. The procedure:
Hela cells (500 μl of DMEM containing Hela cells and 10% of FBS) were spread on a 24-hole plate so as to obtain 5×10^3 cells/well. After 24 hours passed, the old culture medium was removed, and Hela cells were washed with a PBS(−) solution. Subsequently, the PBS(−) solution was removed, and 500 μl of DMEM containing 10% of FBS was added per one well. This was used as a transfection Hela cell plate.
(§1) To 9.2 μl of the Opti-MEM culture medium, 0.8 μl of LipofectAMINE 2000 was added, and the culture medium thus processed was still held for 10 minutes.
Next, the above culture medium and the transfecting sample obtained by the above ii) were mixed together, and this mixture was still held for 20 minutes.
(§2) The mixture thus obtained was added to the transfection Hela cell plate prepared by the above (2) and was then cultured at 37° C. for 6 hours using a CO2 incubator (Automatic CO2 Incubators 5400, manufactured by NAPCO).
(§3) After the culture was performed, the culture medium was removed, and Hela cells were washed with a PBS(−) solution. Subsequently, the PBS(−) solution was removed, and 500 μl of the Opti-MEM culture medium was added per one well. […]
In addition, the observation results of the fluorescence images of EGFP and DsRed obtained by using the compound 3 of the present invention are shown in FIG. 6.

In experiment [4] the test system is EGFP. Description: Influence of light irradiation and compound on RNAi, control siRNA (targeting luciferase), EGFP/DsRed in Hela cells (Example 9). The class given is cell-based. Here is the method:
The expression level obtained by transfection of siRNA which reacted with the compound of the present invention was low as that obtained by transfection of only EGFP. In order to investigate this reason, it was confirmed whether the transfection efficiency was degraded by the compound of the present invention or by the transfection itself of siRNA.
As shown in the following Table 8, 0.2 μl of the crosslinking agent solution and 0.20 μl of the siRNA solution or 0.20 μl of the control siRNA solution were mixed together, and the mixture thus obtained was still held for 8 hours under light shielding conditions.
as §1
Next, the above culture medium and the transfecting sample obtained by the above ii) or the control sample were mixed together, and this mixture was still held for 20 minutes.
as §2, §3

For experiment [5], the system named is Lamin B1. Description: Light irradiation control of endogenous gene, Western blotting of Lamin B1 protein in Hela cells (Example 10). Type of experiment: cell-based. The procedure:
(1) Reagents • Hela cells (American Type Culture Collection (ATCC, Rockville, Md.) • DMEM culture medium (Dullbecco's modified Eagle culture medium, Nissui 2, manufactured by Nissui Pharmaceutical Co., Ltd.) • Opti-MEM culture medium (manufactured by GIBCO) • Trypsin solution (0.38 mg/ml EDTA aqueous solution containing 2.5 mg of trypsin, manufactured by GIBCO) • LipofectAMINE 2000 (manufactured by Invitrogen) • siRNA solution
Hela cells (500 μl of DMEM containing Hela cells and 10% of FBS) were spread on a 24-hole plate so as to obtain 1×10^3 cells/well. After 24 hours passed, the old culture medium was removed, and Hela cells were then washed with a PBS(−) solution. Subsequently, the PBS(−) solution was removed, and 500 μl of DMEM containing 10% of FBS was added per one well. This was used as a transfection Hela cell plate.
Mixing between 4.6 μl of the crosslinking agent solution and 0.46 μl of the siRNA solution was performed, and the mixture thus obtained was still held for 8 hours under light shielding conditions.
After the culture was performed, by a Western blotting method, the amounts of a Lamin B1 protein of the individual samples were quantitatively measured. […]
In addition, from the results of the Western blotting, the amounts of the Lamin B1 protein of the samples were quantitatively measured. […]
(Immunoblotting shows a protein as a band on a membrane.)

The subject of experiment [6] is EGFP. The conditions noted are these: compound 3 4 μM.
Procedure: The crosslinking agent solution in an amount of 0.2 μl and the siRNA solution in an amount of 0.20 μl were mixed together, and the mixture thus formed was still held for 0, 1, 2, 4, 8, or 24 hours under light shielding conditions.
After the culture was performed, transmission images of cells, and fluorescent images of EGFP and DsRed were observed.
By using a Meta Morph Analysis software (manufactured by Meta Imaging Software), the total fluorescent areas of the respective EGFP and DsRed were measured, and the ratio of EGFP/DsRed was obtained.
[7] abbreviates: Hela cells, regardless before and after UV irradiation, bis-Bhc-CH3 4 μM, Bhc-diazo 8 μM.

Turning to `[N-]=[N+]=Cc1cc(=O)oc2cc(O)c(Br)cc12` [Bhc-diazo, 6-bromo-7-hydroxy-4-methyldiazocumarine], the “binding to / crosslinking of siRNA” value in experiment [1] is listed as “could not crosslink two chains of siRNA”. Moreover, the “inhibition of the siRNA effect (relative EGFP expression level)” value in experiment [1] (setting [7]) is “the siRNA effect could be hardlyinhibited”.

As to `Cc1cc(=O)oc2cc(OC(=O)CC(C)(C)CC(=O)OCCOC(=O)CC(C)(C)CC(=O)Oc3cc4oc(=O)cc(C)c4cc3Br)c(Br)cc12` [bis-Bhc-CH3, 3,3-dimethylglutaric acid (6-bromo-4-methyl-2-oxo-2H-chromen)-7-yl 2-[4-(6-bromo-4-methyl-2-oxo-2H-chromen-7-yloxycarbonyl)-3,3-dimethylbutyryloxy]ethyl ester], the “binding to / crosslinking of siRNA” value in experiment [1] is on record as “could not be bound to siRNA”. The “inhibition of the siRNA effect (relative EGFP expression level)” value in experiment [1] (setting [7]) was “the siRNA effect could be hardlyinhibited”.

As to `[N-]=[N+]=Cc1cc(=O)oc2cc(OC(=O)CCCC(=O)OCCOC(=O)CCCC(=O)Oc3cc4oc(=O)cc(C=[N+]=[N-])c4cc3Br)c(Br)cc12` [compound 2 of the present invention, Glutaric acid (6-bromo-4-diazomethyl-2-oxo-2H-chromen)-7-yl 2-[4-(6-bromo-4-diazomethyl-2-oxo-2H-chromen-7-yloxycarbonyl)butyryloxy]ethyl ester], in experiment [2], the “inhibition of the RNAi effect of siRNA (relative EGFP expression level)” value is “superior effect of inhibiting the RNAi effect”.

In the case of `CC(C)(CC(=O)OCCOC(=O)CC(C)(C)CC(=O)Oc1cc2oc(=O)cc(C=[N+]=[N-])c2cc1Br)CC(=O)Oc1cc2oc(=O)cc(C=[N+]=[N-])c2cc1Br` [compound 3 of the present invention, 3,3-dimethylglutaric acid (6-bromo-4-diazomethyl-2-oxo-2H-chromen)-7-yl 2-[4-(6-bromo-4-diazomethyl-2-oxo-2H-chromen-7-yloxycarbonyl)-3,3-dimethylbutyryloxy]ethyl ester], the “inhibition of the RNAi effect of siRNA (relative EGFP expression level)” value in experiment [2] is given as “superior effect of inhibiting the RNAi effect; also recorded: most superior effect”. Moreover, in experiment [1] (Hela cells, 4 μM, UV irradiation not performed), the “inhibition of the siRNA effect (relative EGFP expression level)” value was “could inhibit the siRNA effect”. In addition, the “effect of UV irradiation on the inhibition of the siRNA effect” value in experiment [1] (Hela cells, UV (350 nm) for 3 minutes) is on record as “the inhibition was broken down by UV irradiation”. Further, the “RNAi effect of siRNA at a portion not irradiated with UV” value in experiment [3] (Hela cells transfected with siRNA crosslinked by compound 3) was “the RNAi effect of siRNA was inhibited”. The “RNAi effect of siRNA at a portion irradiated with UV” value in experiment [3] (Hela cells, UV (335 to 385 nm) for 1 second at the center of the well, 42 hours culture) is reported as “the RNAi effect of siRNA was restored”. Moreover, the “EGFP expression rate with control siRNA crosslinked by the compound versus control siRNA only” value in experiment [4] is “approximately equivalent to each other”. Also, the “restoration of the inhibited RNAi effect on Lamin B1 expression by UV irradiation” value in experiment [5] (UV irradiation as in Example 8) is recorded as “could be restored”. In addition, the “inhibition of the RNAi effect of siRNA on Lamin B1 expression” value in experiment [5] (compound 3 bound to siRNA, no UV) is given as “the RNAi effect of siRNA could be inhibited”. Further, the “crosslinking of siRNA when the reaction time is short” value in experiment [6] (reaction time short (0, 1, 2, 4 hours tested)) was “could not be sufficiently crosslinked”. In addition, the “reaction time at which the reaction between crosslinking agent and siRNA reached a plateau” value in experiment [6] (reaction times 0-24 hours, no significant difference between 8 and 24 hours) is “approximately 8 hours”.
